Measurements from patent publication US12404268B2, “2-heteroaryl aminoquinazolinone derivative” (Sumitomo Pharma Co., Ltd., priority 2020, dated 2025).
pIC50: −log10 of the molar value.

Each molecule was assayed on neurons induced to differentiate from SCN1A gene deficient human iPS cells (assay: Test for measuring hyperexcitation suppression activity (spontaneous calcium oscillation frequency)). Details: Homo sapiens, Neuron; @0.1 μM; read-out: inhibition rate.
Type: cell-based
Source text: Test for Measuring Hyperexcitation Suppression Activity Using Neurons Induced to Differentiate from SCN1A Gene Deficient Human iPS Cells
(1) Induction of Differentiation from Human iPS cells to Neurons
Half of the culture solution was exchanged once every 3 to 4 days.
(2) Fluorescent Calcium Probe Treatment, Addition of Compound, and Evaluation of Intracellular Calcium Concentration
Half of the culture solution was removed on day 60 from induction of differentiation or thereafter. A medium for measurement comprising a fluorescent calcium probe (Molecular Device, product name: FLIPR Calcium 6 Assay Bulk Kit, cat #R8191) was added at an amount equal to the remaining medium. The culture was left standing for 30 minutes and subjected to measurement.
The test compounds were serially diluted with a dimethyl sulfoxide (DMSO) solution so that the final concentration would be 0.1 to 100 μM to prepare a concentrate with a concentration that is 6-fold of the final concentration.
The intensity of fluorescence of a calcium probe was measured over time with FDSS7000EX (Hamamatsu Photonics) to evaluate the change in intracellular calcium concentrations. First, the intensity of fluorescence was measured for 2 minutes. The compound solutions were then added using FDSS7000EX for an additional 8 minute measurement of fluorescence intensity. The frequency of spontaneous calcium oscillation was quantified as an indicator of nerve excitation. With the frequency for 2 minutes before the addition of the compound solutions as 100%, the ratio of frequency for the last 2 minutes after addition of the compound solutions was calculated.

In order of rising inhibition at 0.1 µM:
1. O=c1c2ccccc2nc(Nc2cccn3cncc23)n1-c1ccccc1 [Example 69, 2-(imidazo[1,5-a]pyridin-8-ylamino)-3-phenylquinazolin-4(3H)-one]  39%
2. Cc1ccccc1-n1c(Nc2cncc(F)c2)nc2ccc(F)cc2c1=O [Example 4, 6-fluoro-2-((5-fluoropyridin-3-yl)amino)-3-(o-tolyl)quinazolin-4(3H)-one]  88%

Same assay, conditions: Homo sapiens, Neuron; @1 μM; read-out: inhibition rate

In order of rising inhibition at 1 µM:
1. O=c1c2ccccc2nc(Nc2cccnc2)n1C1CCCCC1 [Example 57]  21%
2. Cc1cccnc1Nc1nc2ccc(Cl)cc2c(=O)n1-c1ccccc1 [Example 26]  23%
3. O=c1c2ccccc2nc(Nc2cccc3cncn23)n1-c1ccccc1 [Example 63]  23%
4. O=c1c2ccccc2nc(Nc2ccc3ocnc3c2)n1-c1ccccc1 [Example 1, 2-(benzo[d]oxazol-5-ylamino)-3-phenylquinazolin-4(3H)-one]  31%
5. COc1cncc(Nc2nc3ccc(F)cc3c(=O)n2-c2ccccc2)c1 [Example 28]  32%
6. CN1[C@@H]2CC[C@H]1C[C@H](n1c(Nc3cccnc3)nc3ccccc3c1=O)C2 [Example 76]  35%
7. Cc1cncc(Nc2nc3ccc(F)cc3c(=O)n2-c2ccccc2)c1 [Example 27]  37%
8. CC(C)n1c(Nc2cccnc2)nc2ccc(F)cc2c1=O [Example 59]  39%
9. O=c1c2cc(F)ccc2nc(Nc2cccnc2)n1C1CCC(F)(F)CC1 [Example 62]  43%
10. CN1CCC[C@H](n2c(Nc3cccnc3)nc3ccccc3c2=O)C1 [Example 71]  51%
11. O=c1c2cc(F)ccc2nc(Nc2cncc(C(F)(F)F)c2)n1-c1ccccc1 [Example 48]  55%
12. O=c1c2ccccc2nc(Nc2ccn3ccnc3c2)n1-c1ccccc1 [Example 70]  58%
13. COc1ccncc1Nc1nc2ccc(Cl)cc2c(=O)n1-c1ccccc1 [Example 23]  61%
14. Cc1ccc(Nc2nc3ccc(F)cc3c(=O)n2-c2ccccc2)cn1 [Example 30]  67%
15. C[C@]1(N)CC[C@H](n2c(Nc3cccnc3)nc3ccccc3c2=O)CC1 [Example 73]  86%
16. O=c1c2cc(F)ccc2nc(Nc2cccnc2)n1-c1cccnc1 [Example 35, 6-fluoro-3-(pyridin-3-yl)-2-(pyridin-3-ylamino)quinazolin-4(3H)-one]  88%
17. O=c1c2cc(Cl)ccc2nc(Nc2cnccn2)n1-c1ccccc1 [Example 38, 6-chloro-3-phenyl-2-(pyrazin-2-ylamino)quinazolin-4(3H)-one]  88%
18. O=c1c2cc(Cl)ccc2nc(Nc2cccnc2)n1-c1ccccc1 [Example 31, 6-chloro-3-phenyl-2-(pyridin-3-ylamino)quinazolin-4(3H)-one]  93%
19. N#Cc1cncc(Nc2nc3ccc(Cl)cc3c(=O)n2-c2ccccc2)c1 [Example 41, 5-((6-chloro-4-oxo-3-phenyl-3,4-dihydroquinazolin-2-yl)amino)nicotinonitrile]  95%
20. Cn1ncc2ccc(Nc3nc4ccccc4c(=O)n3-c3ccccc3)cc21 [Example 54, 2-((1-methyl-1H-indazol-6-yl)amino)-3-phenylquinazolin-4(3H)-one]  95%
21. Cc1ccc2nc(Nc3cccnc3)n(-c3ccccc3)c(=O)c2c1 [Example 42, 6-methyl-3-phenyl-2-(pyridin-3-ylamino)quinazolin-4(3H)-one]  98%
22. O=c1c2cc(Cl)ccc2nc(Nc2cccnc2)n1-c1ccccc1Cl [Example 15, 6-chloro-3-(2-chlorophenyl)-2-(pyridin-3-ylamino)quinazolin-4(3H)-one]  99%
23. O=c1c2cc(F)ccc2nc(Nc2cnccn2)n1-c1ccccc1 [Example 39, 6-fluoro-3-phenyl-2-(pyrazin-2-ylamino)quinazolin-4(3H)-one]  100%
24. O=c1c2cc(F)ccc2nc(Nc2cncc(Cl)c2)n1-c1ccccc1 [Example 45, 2-((5-chloropyridin-3-yl)amino)-6-fluoro-3-phenylquinazolin-4(3H)-one]  100%
25. O=c1c2cc(Cl)ccc2nc(Nc2cccnc2)n1-c1ccccc1F [Example 51, 6-chloro-3-(2-fluorophenyl)-2-(pyridin-3-ylamino)quinazolin-4(3H)-one]  100%

Same assay, conditions: Homo sapiens, Neuron; @10 μM; read-out: inhibition rate

In order of rising inhibition at 10 µM:
1. COCc1nccc(Nc2nc3ccc(Cl)cc3c(=O)n2-c2ccccc2)n1 [Example 21]  27%
2. Cc1nccc(Nc2nc3ccc(Cl)cc3c(=O)n2-c2ccccc2)n1 [Example 36]  32%
3. CCc1ccc(Nc2nc3ccc(Cl)cc3c(=O)n2-c2ccccc2)cn1 [Example 49]  34%
4. O=c1c2cc(Cl)ccc2nc(Nc2ccc3nncn3c2)n1-c1ccccc1 [Example 16]  42%
5. Cc1ncccc1Nc1nc2ccc(Cl)cc2c(=O)n1-c1ccccc1 [Example 24]  54%
6. Cn1cnc2ccc(Nc3nc4ccccc4c(=O)n3-c3ccccc3)cc21 [Example 2, 2-((1-methyl-1H-benzo[d]imidazol-6-yl)amino)-3-phenylquinazolin-4(3H)-one]  57%
7. O=c1c2cc(Cl)ccc2nc(Nc2ccnnc2)n1-c1ccccc1 [Example 34]  57%
8. O=c1c2ccccc2nc(Nc2cccn3ccnc23)n1-c1ccccc1 [Example 66]  62%
9. COCc1nccc(Nc2nc3ccc(F)cc3c(=O)n2-c2ccccc2)n1 [Example 37]  68%
10. COc1ccc(Nc2nc3ccc(Cl)cc3c(=O)n2-c2ccccc2)cn1 [Example 22]  70%
11. O=c1c2cc(Cl)ccc2nc(Nc2ccc(C(F)(F)F)cn2)n1-c1ccccc1 [Example 53]  79%
12. O=c1c2cc(F)ccc2nc(Nc2cccnc2)n1C1CCCCC1 [Example 61]  79%
13. CC(C)c1ccc(Nc2nc3ccc(Cl)cc3c(=O)n2-c2ccccc2)cn1 [Example 44]  81%
14. O=c1c2cc(Cl)ccc2nc(Nc2ccc(F)cn2)n1-c1ccccc1 [Example 25]  82%
15. Cc1ncccc1Nc1nc2ccc(F)cc2c(=O)n1-c1ccccc1 [Example 29]  82%
16. CC(C)n1c(Nc2cccnc2)nc2ccccc2c1=O [Example 55]  88%
17. Cc1ccncc1Nc1nc2ccc(F)cc2c(=O)n1-c1ccccc1 [Example 47]  89%
18. O=c1c2cc(Cl)ccc2nc(Nc2ccncc2)n1-c1ccccc1 [Example 33]  100%
19. CCc1ccc(Nc2nc3ccc(F)cc3c(=O)n2-c2ccccc2)cn1 [Example 50]  100%
20. O=c1c2ccccc2nc(Nc2cccnc2)n1C1CCCC1 [Example 56]  100%
21. O=c1c2ccccc2nc(Nc2cccnc2)n1C1CCC(F)(F)CC1 [Example 58]  100%
22. O=c1c2cc(F)ccc2nc(Nc2cccnc2)n1C1CCCC1 [Example 60]  100%
23. O=c1c2ccccc2nc(Nc2cccc3cnoc23)n1-c1ccccc1 [Example 67]  100%
24. O=c1c2ccccc2nc(Nc2ccc3cncn3c2)n1-c1ccccc1 [Example 68]  100%
25. O=c1c2cc(F)ccc2nc(Nc2cccnc2)n1C12CCN(CC1)CC2 [Example 72]  100%
26. C[C@]1(N)CC[C@@H](n2c(Nc3cccnc3)nc3ccccc3c2=O)CC1 [Example 74]  100%
27. CN1CCC[C@@H](n2c(Nc3cccnc3)nc3ccccc3c2=O)C1 [Example 75]  100%

Same assay, conditions: Homo sapiens, Neuron; @100 μM; read-out: inhibition rate

In order of falling inhibition at 100 µM:
1. Cc1cc(Nc2nc3ccc(Cl)cc3c(=O)n2-c2ccccc2)ncn1 [Example 46]  34%
2. COc1ccc2nc(Nc3cccnc3)n(-c3ccccc3)c(=O)c2c1 [Example 13]  20%
3. COc1cc(F)cc2c(=O)n(-c3ccccc3)c(Nc3cccnc3)nc12 [Example 17]  17%

Same assay, conditions: Neuron; SCN1A gene deficient human iPS cell-derived neurons; FLIPR Calcium 6, FDSS7000EX; read-out: IC50 (50% inhibitory concentration, frequency of spontaneous calcium oscillation)

In order of falling pIC50:
1. COc1ncccc1Nc1nc2ccc(Cl)cc2c(=O)n1-c1ccccc1 [Example 10, 6-chloro-2-((2-methoxypyridin-3-yl)amino)-3-phenylquinazolin-4(3H)-one]  6.52
2. O=c1c2cc(Cl)ccc2nc(Nc2cncnc2)n1-c1ccccc1 [Example 6]  6.40
3. O=c1c2cc(Cl)ccc2nc(Nc2cccnn2)n1-c1ccccc1 [Example 9]  6.22
4. O=c1c2cc(F)ccc2nc(Nc2cccnn2)n1-c1ccccc1 [Example 18]  6.10
5. Cc1ccc(Nc2nc3ccc(Cl)cc3c(=O)n2-c2ccccc2)cn1 [Example 8]  6.00
6. O=c1c2cc(F)ccc2nc(Nc2ccnnc2)n1-c1ccccc1 [Example 19]  5.66
7. O=c1c2cc(F)ccc2nc(Nc2ccncn2)n1-c1ccccc1 [Example 20]  5.31
8. O=c1c2cc(Cl)ccc2nc(Nc2cnccc2C(F)(F)F)n1-c1ccccc1 [Example 11]  5.24
9. O=c1c2cc(Cl)ccc2nc(Nc2ccc3nccnc3c2)n1-c1ccccc1 [Example 5]  5.21
10. O=c1c2cc(Cl)ccc2nc(Nc2ncccn2)n1-c1ccccc1 [Example 7]  5.19
